From PubChem BioAssay (NCI) come the findings set out here.

Among the test systems are HS 578T breast; KM12 colon; MCF7 breast; MDA-N; NCI-H460 lung; OVCAR-3 ovarian; SF-295 CNS; SW-620 colon; U251 CNS; UACC-257 melanoma.
Holding throughout (assay): NCI tumour cell line growth inhibition, 48 h

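Step 1: Grow cells in 96-well plates. Step 2: Expose to compound for 48 hours at 5 concentrations. Step 3: Interpolate endpoints linearly; if unreached, use highest concentration. Definition used: TGI = concentration required for complete inhibition of growth.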

Regarding `CC(C)(C)c1ccc(OCCOc2ccc(C(C)(C)C)cc2NC=O)c(NC=O)c1`, the TGI in the test with HS 578T breast amounted to 42.8 µM; in the test on KM12 colon it was 16.2 µM; with MCF7 breast, 23.2 µM; in the test on MDA-N, 27.3 µM; in the test with NCI-H460 lung it was 34.3 µM; in the test with OVCAR-3 ovarian, 36.5 µM. The TGI is 25 µM with SF-295 CNS, above 58.3 µM in the test with SW-620 colon, 34.7 µM in the test on U251 CNS and 27.4 µM in the test with UACC-257 melanoma.
For `Clc1cccc(C=NC23CC4CC(CC(C4)C2)C3)c1Cl`, the TGI with HS 578T breast, in the test with KM12 colon, with MCF7 breast, with MDA-N, with NCI-H460 lung and with OVCAR-3 ovarian was above 10 µM throughout. For the same molecule, the TGI in the test on SF-295 CNS, in the test on SW-620 colon, with U251 CNS and with UACC-257 melanoma was above 10 µM each time.
For `COC(=O)c1cc(NC(=O)Cn2c3ccccc3c3ccccc32)cn1C`, the TGI with HS 578T breast is 42.4 µM; in the test with KM12 colon it was above 100 µM; in the test with MCF7 breast, above 100 µM; in the test on MDA-N it was above 100 µM; in the test with NCI-H460 lung it was above 100 µM; in the test on OVCAR-3 ovarian, above 100 µM. Also, the TGI is 86.3 µM in the test on SF-295 CNS, above 100 µM with SW-620 colon, above 100 µM in the test on U251 CNS and above 100 µM in the test with UACC-257 melanoma.
`COC(=O)[C@@]1(Cc2ccc(OC(C)=O)cc2)Cc2cc3ccccc3n2N1`: the TGI is above 100 µM in the test with HS 578T breast; above 100 µM in the test on KM12 colon; above 100 µM in the test on MCF7 breast; 77.6 µM with MDA-N; above 100 µM in the test on OVCAR-3 ovarian; above 100 µM with SF-295 CNS. The TGI in the test on SW-620 colon was above 100 µM; in the test on U251 CNS, above 100 µM; in the test on UACC-257 melanoma, 52.1 µM.
In the case of `CC(=O)[C@H]1CC[C@@H]2[C@]1(C)CC=C1[C@]23C=C[C@]2(C[C@@H](O)CC[C@]12C)C(C(=O)O)C3C(=O)O` (some centres undefined), the TGI with HS 578T breast, in the test with KM12 colon, with MCF7 breast, in the test on MDA-N, with NCI-H460 lung and in the test with OVCAR-3 ovarian was above 100 µM throughout. The TGI with SF-295 CNS, in the test on SW-620 colon, with U251 CNS and in the test on UACC-257 melanoma was above 100 µM throughout.
As for `CCOP(=O)(OCC)C(Cc1cn(S(=O)(=O)c2ccc(C)cc2)cn1)C(=O)O` (centres undefined), the TGI in the test on HS 578T breast, in the test on KM12 colon, in the test on MCF7 breast, in the test with MDA-N, in the test with NCI-H460 lung and in the test with OVCAR-3 ovarian was above 100 µM in each case. For the same molecule, the TGI in the test with SF-295 CNS, in the test on SW-620 colon and in the test with U251 CNS was above 100 µM throughout.
Take `O=c1oc2c(Cl)cc(Cl)cc2cc1-c1cn2c(n1)sc1ccccc12`: the TGI in the test on HS 578T breast, in the test with KM12 colon, in the test on MCF7 breast, in the test on MDA-N, in the test on NCI-H460 lung and with OVCAR-3 ovarian was above 100 µM throughout. Besides, the TGI was above 100 µM in the test with SF-295 CNS, 92.4 µM in the test with SW-620 colon, above 100 µM in the test with U251 CNS and above 100 µM with UACC-257 melanoma.
For `O=S1(=O)OCCOS(=O)(=O)C1C1c2ccccc2-c2ccccc21`, the TGI is above 100 µM with HS 578T breast; above 100 µM with KM12 colon; above 100 µM in the test on MCF7 breast; above 100 µM with MDA-N; 33.7 µM in the test with NCI-H460 lung; above 100 µM in the test on OVCAR-3 ovarian. The TGI in the test on SF-295 CNS was above 100 µM; in the test on SW-620 colon, above 100 µM; with U251 CNS it was 57.9 µM; in the test on UACC-257 melanoma, above 100 µM.
As to `Cn1c(SCc2ccc([N+](=O)[O-])cc2)nnc1C12CC3CC(CC(C3)C1)C2`, the TGI in the test on HS 578T breast, with KM12 colon, in the test with MCF7 breast, in the test with MDA-N, in the test on NCI-H460 lung and in the test on OVCAR-3 ovarian was above 10 µM throughout. The TGI in the test on SF-295 CNS, with SW-620 colon and with U251 CNS was above 10 µM each time.
Consider `CCc1c[n+]2c(cc1C1=CN3c4ccccc4[C@]45CCN6C/C(=C/CO)[C@H](C[C@H]64)[C@@H]([C@@H]1O)[C@H]35)-c1[nH]c3ccccc3c1CC2`, for which the TGI with HS 578T breast, with KM12 colon, in the test on MCF7 breast, in the test with MDA-N, in the test on NCI-H460 lung and with OVCAR-3 ovarian was above 50 µM each time. Moreover, the TGI in the test on SF-295 CNS, in the test with SW-620 colon, in the test on U251 CNS and in the test with UACC-257 melanoma was above 50 µM each time.
As to `CC(NC(=O)C(NC(=O)C(NC(=O)C(F)(F)F)C(C)C)C(C)C)C(=O)Oc1c(Cl)c(Cl)c(Cl)c(Cl)c1Cl` (centres undefined), the TGI in the test with HS 578T breast, in the test on KM12 colon, with MCF7 breast, in the test with MDA-N, in the test on NCI-H460 lung and in the test with OVCAR-3 ovarian was above 100 µM each time. Further, the TGI in the test on SW-620 colon, with U251 CNS and in the test on UACC-257 melanoma was above 100 µM in each case.
With `COc1ccc2nc3c(nc2c1)C(C)(C)C=C3c1ccc(Br)cc1`, the TGI in the test with HS 578T breast is above 100 µM; in the test on KM12 colon, above 100 µM; in the test with MCF7 breast, above 100 µM; in the test with MDA-N it was above 100 µM; in the test with NCI-H460 lung, above 100 µM; in the test with SW-620 colon it was 21.9 µM. The TGI in the test on U251 CNS and in the test with UACC-257 melanoma was above 100 µM in each case.
On to `CCOC(=O)/C(C(N)=O)=C(/O)c1cnccn1`, for which the TGI with HS 578T breast, in the test with KM12 colon, in the test with MCF7 breast, in the test with MDA-N, with NCI-H460 lung and with OVCAR-3 ovarian was above 100 µM throughout. Further, the TGI in the test with SF-295 CNS, with SW-620 colon, with U251 CNS and in the test on UACC-257 melanoma was above 100 µM in each case.
